According to patent US5443986A, “Enzymatic analysis using substrates that yield fluorescent precipitates” (Molecular Probes, Inc., priority 1993, dated 1995):

How the values were obtained:
[1] = system: epidermal growth factor (EGF) receptors; test: Detection of a growth factor receptor in A431 cells; type: cell-based, human; settings: fluorescence microscope; substrate 0.1 mM 15 minutes, or 50 ng/mL direct conjugate
Procedure: 1 ). Cells. Dish-cultured A431 cells (American Type Culture Collection, Rockville, Md.) are digested with trypsin and transferred to glass cover-slips. The cells are subcultured and stabilized for 24 to 48 hours before use.
2). Staining. The slips are transferred into a staining dish, washed with PBS, rinsed in a 0.5% formaldehyde PBS solution for 15 minutes at room temperature, washed with PBS, then incubated in 50 ng/mL biotinylated epidermal growth factor (biotin-EGF; Molecular Probes, Inc., Eugene, Oreg.) in PBS solution for 30 minutes at room temperature. The slips are washed with PBS buffer, then incubated with 1 μg/mL streptavidin alkaline phosphatase (Molecular Probes, Inc.) in a reaction buffer (0.1M TRIS pH 7.8 containing 0.15M NaCl, 50 mM MgCl2 and 0.1 mM ZnCl2) for 30 minutes at room temperature. The slips are washed with the reaction buffer, then incubated with 0.1 mM of a precipitating alkaline phosphatase substrate in the reaction buffer for 15 minutes at room temperature. The substrate solution is filtered through a 0.2 μM filter (Millipore, Bedford, Mass.) before use.
3). Detection. The slips are washed with PBS then examined under a Zeiss fluorescence microscope equipped with suitable filters (typically excitation at about 360 nm and emission past 480 nm). […] Alternatively the fluorescent labeled cells can be detected and the intensity quantitated by flow cytometry.

[2] = biological target: T1, β-galactosidase (Escherichia coli, UniProt P00722); test: Labeling of lacZ positive fibroblast cells with a β-galactosidase substrate; type: cell-based
T1 construct: host or cells: CRE BAG 2 cells (NIH/3T3 cells transformed with a retrovirus containing lacZ)
T1 sequence (P00722 whole entry): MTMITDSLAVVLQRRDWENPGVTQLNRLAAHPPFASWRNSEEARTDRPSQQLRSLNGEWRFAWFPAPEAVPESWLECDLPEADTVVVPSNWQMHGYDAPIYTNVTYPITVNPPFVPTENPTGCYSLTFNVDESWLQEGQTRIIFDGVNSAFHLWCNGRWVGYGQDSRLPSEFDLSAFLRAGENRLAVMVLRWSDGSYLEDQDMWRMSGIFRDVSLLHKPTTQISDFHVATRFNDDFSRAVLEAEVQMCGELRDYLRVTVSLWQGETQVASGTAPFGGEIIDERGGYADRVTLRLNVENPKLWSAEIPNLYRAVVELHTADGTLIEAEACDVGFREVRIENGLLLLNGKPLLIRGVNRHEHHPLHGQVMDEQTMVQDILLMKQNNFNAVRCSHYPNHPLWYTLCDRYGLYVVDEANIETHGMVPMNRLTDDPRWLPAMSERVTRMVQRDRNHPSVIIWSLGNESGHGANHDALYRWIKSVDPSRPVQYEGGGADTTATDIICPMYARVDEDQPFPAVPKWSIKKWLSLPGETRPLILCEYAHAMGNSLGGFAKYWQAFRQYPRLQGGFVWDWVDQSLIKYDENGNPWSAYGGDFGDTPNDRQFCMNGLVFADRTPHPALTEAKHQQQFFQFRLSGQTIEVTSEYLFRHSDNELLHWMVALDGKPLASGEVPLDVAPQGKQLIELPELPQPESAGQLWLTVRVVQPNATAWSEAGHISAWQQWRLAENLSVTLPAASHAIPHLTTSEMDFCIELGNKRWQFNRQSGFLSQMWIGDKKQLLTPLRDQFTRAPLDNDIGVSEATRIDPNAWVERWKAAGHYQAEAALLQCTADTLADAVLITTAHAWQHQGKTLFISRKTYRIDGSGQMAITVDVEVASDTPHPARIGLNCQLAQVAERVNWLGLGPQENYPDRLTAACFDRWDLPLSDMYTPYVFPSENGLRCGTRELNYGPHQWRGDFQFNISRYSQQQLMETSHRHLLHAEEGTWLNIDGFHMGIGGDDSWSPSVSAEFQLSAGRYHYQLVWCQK
Procedure: (§1) 1.1 Cell Lines: NIH/3T3 cells (lacZ negative) and CRE BAG 2 cells (3T3 cells transformed with a retrovirus containing the lacZ gene) are employed for cellular assays. Both cell lines can be obtained from American Type Culture Collection Co., Rockville, Md. The cells are grown in a humidified atmosphere of 5% CO2 in Dulbecco's modified Eagle's medium supplemented with 10% calf serum, 50 μg/mL gentamicin, 300 μg/mL L-glutamine and 10 mM HEPES pH 7.4.
1.2 Stock Solution of the Labeling Reagent: The β-galactosidase substrate 1h is dissolved in DMSO to get a 10 mM stock solution.
(§2) 1.3 Working Medium: 100 μL of the dye stock solution is added to 10 mL of fresh culture medium to prepare a "working medium" containing 100 μM of the substrate 1h. This medium is then filter-sterilized by passing through an Acrodisc™ filter (0.45μ pore size).
1.4 Staining and Examination of Cells: Cells grown on coverslips are transferred to the working medium and incubated at 37° C. under normal culture conditions. Cells are examined at the desired time for their fluorescence under a Zeiss microscope equipped with a Hoechst filter set (typically excitation at about 360 nm and emission past 480 nm). […] After 6 hours, the fluorescence intensity of stained CRE BAG 2 cells reaches its highest level.

[3] = system: NIH/3T3 cells and CRE BAG 2 cells; test: Cytotoxicity and cellular retention in fibroblast cells; type: cell-based
Procedure: as §1, §2

[4] = system: β-galactosidase; test: Labeling of lacZ positive yeast cells; type: cell-based, Yeast strain EG 123; settings: 200 μM staining solution mixed with equal volume of cells, after 300 μM chloroquine
Procedure: 2.1 Yeast Strain: Yeast strain EG 123 is transformed with plasmid pLGΔ-312S, which carries the yeast CYC1 promotor region and initiation codon fused in frame with the lacZ gene. The cells are grown in a synthetic medium selecting for plasmid maintenance to a density of about 10^7 cells per mL. Cells are collected by centrifugation and resuspended in Z buffer to obtain a cell suspension. Z buffer contains 0.2% β-mercaptoethanol which improves the permeability of both the yeast cell wall and the plasma membrane. Nontransformed yeast cells are used as the control.
2.2 Staining Solution: The galactosidase substrate (1h) is first dissolved in DMSO to get 10 mM stock solution. This solution is diluted 1:50 with distilled water to obtain a 200 μM staining solution.
2.3 Staining and Examination of Cells: To inhibit endogenous vacuolar galactosidase activity, yeast cells are first preincubated with 300 μM chloroquine for 20 minutes at room temperature, then mixed with an equal volume of the substrate-containing staining solution. Most of the lacZ positive cells become fluorescent within 15 minutes. A crystalline precipitate can be observed in the cells, while the lacZ negative cells remain unstained for at least 2 hours.

| Compound | fluorescence of stained fixed A431 cells [1] | time at which fluorescence intensity of stained CRE BAG 2 cells reaches its highest level ([2]; 100 μM working medium) [h] | fluorescent staining of 3T3 cells (lacZ negative) ([2]; 100 μM, 60 minutes, 37° C.) | fluorescent staining of lacZ positive CRE BAG 2 cells ([2]; 100 μM, 60 minutes, 37° C.) | cytotoxicity [3] | cell morphology and population doubling time ([3]; 100 μM working medium, 24 hours) | time for which lacZ negative yeast cells remain unstained [4] | time within which most lacZ positive yeast cells become fluorescent [4] [min] |
| --- | --- | --- | --- | --- | --- | --- | --- | --- |
| fluorescein EGF: direct fluorescent conjugate of epidermal growth factor (NSDSECPLSHDGYCLHDGVCMYIEALDKYACNCVVGYIGERCQYRDLKWWELR; Epidermal growth factor fluorescein label; UniProt P01133 971-1023, looked up) | extremely low visibility and very low photostability |  |  |  |  |  |  |  |
| O=c1[nH]c(-c2ccccc2O[C@@H]2O[C@H](CO)[C@H](O)[C@H](O)[C@H]2O)nc2ccccc12 [1h] |  | 6 | not in the 3T3 cells | fluorescent spots can be observed in the cytoplasmic area | no cytotoxicity | look morphologically normal and have the same population doubling time as the control | at least 2 hours | ≤ 15 |
